Assay results as given in patent US8871767B2, “2-arylimidazo[1,2-B]pyridazine, 2-phenylimidazo[1,2-A]pyridine, and 2-phenylimidazo[1,2-A]pyrazine derivatives” (Hengrui (USA) Ltd., priority 2010, dated 2014).
Where two headings read alike, the source gives them in different places.

Key:
[1] = test system: Hedgehog pathway activation on 10T1/2/Smo#3 cells (C3H10T1/2 cells transfected with human Smoothened receptor); experiment: Hedgehog pathway activation on 10T1/2/Smo#3 cells measured by ALP activity; assay type: cell-based; details: Mus musculus, C3H 10T1/2, 10T1/2/Smo#3 cells
Summary of the method: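 C3H10T1/2 cells stably expressing human Smoothened were activated with hShh-conditioned medium (10-20%) or 500 nM SAG, with test compounds present. Pathway block read as inhibited ALP activity (4-methylumbelliferyl phosphate fluorescence); viability checked by CellTiter-Blue. IC50 values reported.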

[2] = test system: Hedgehog pathway activation (GLi-luciferase reporter) in Shh Light II reporter cells; experiment: Hedgehog pathway activation on Shh Light II reporter cells measured by luciferase activity; assay type: cell-based; details: Mus musculus, Shh Light II
Summary of the method: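 Shh Light II reporter cells carrying a hedgehog-responsive GLi-luciferase reporter were stimulated either with 500 nM SAG, a direct Smoothened agonist, or with conditioned media containing human Sonic Hedgehog (hShh). Test compounds were evaluated for blocking this pathway activation, quantified by luciferase activity. Cell viability was monitored in parallel with the Celltiter-Blue® assay.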

[3] = measured by ALP activity, read-out: ALP (IC50, inhibition of Hedgehog pathway activation)
[4] = hShh activation, read-out: Shh (IC50, inhibition of Hedgehog pathway activation)
[5] = hShh activation, ALP activity, read-out: 10T1/2/Smo#3 ALP activity (hShh Activation)
[6] = SAG activation (500 nM SAG), read-out: Shh Light II luciferase activity (SAG activation)
[7] = hShh activation, read-out: Shh Light II luciferase activity (hShh activation)

SMILES | IC50 [1, 3] | IC50 [2, 4] | IC50 [1, 5] | IC50 [2, 6] | IC50 [2, 7]
CCc1ccc(-c2cn3nc(-c4cccnc4C(F)(F)F)ccc3n2)cc1NC(=O)N1CCCC1 [Example 694, N-(2-ethyl-5-(6-(2-(trifluoromethyl)pyridin-3-yl)imidazo[1,2-b]pyridazin-2-yl)phenyl)pyrrolidine-1-carboxamide] | 174 nM | 339 nM | – | – | –
COc1ccc2nc(-c3ccc(C)c(NC(=O)C(C)(C)C)c3)cn2n1 [Example 94, N-(5-(6-methoxyimidazo[1,2-b]pyridazin-2-yl)-2-methylphenyl)pivalamide] | 1520 nM | 614 nM | – | – | –
CSc1ccc2nc(-c3ccc(C(F)(F)F)c(NC(=O)C(C)(C)C)c3)cn2n1 [Example 135, N-(5-(6-(methylthio)imidazo[1,2-b]pyridazin-2-yl)-2-(trifluoromethyl)phenyl)pivalamide] | 5230 nM | 1250 nM | – | – | –
CCC(C)(C)C(=O)Nc1cc(-c2cn3nc(-c4cccnc4C(F)(F)F)ccc3n2)ccc1Cl [Example 664, N-(2-chloro-5-(6-(2-(trifluoromethyl)pyridin-3-yl)imidazo[1,2-b]pyridazin-2-yl)phenyl)-2,2-dimethylbutanamide] | 105 nM | 24 nM | – | – | –
Cc1ccc(-c2cn3nc(-c4csc(N5CCOCC5)n4)ccc3n2)cc1NC(=O)C(C)(C)C [Example 448, N-(2-methyl-5-(6-(2-morpholinothiazol-4-yl)imidazo[1,2-b]pyridazin-2-yl)phenyl)pivalamide] | 643 nM | 1280 nM | – | – | –
CC(C)(C)C(=O)Nc1cc(-c2cn3nc(-c4cc(Cl)ccc4F)ccc3n2)ccc1C(F)(F)F [Example 227, N-(5-(6-(5-chloro-2-fluorophenyl)imidazo[1,2-b]pyridazin-2-yl)-2-(trifluoromethyl)phenyl)pivalamide] | 141 nM | 65 nM | – | – | –
COc1cnccc1-c1ccc2nc(-c3ccc(C(F)(F)F)c(NC(=O)C(C)(C)C)c3)cn2n1 [Example 382, N-(5-(6-(3-methoxypyridin-4-yl)imidazo[1,2-b]pyridazin-2-yl)-2-(trifluoromethyl)phenyl)pivalamide] | 536 nM | 1220 nM | – | – | –
CC(C)(C)NS(=O)(=O)c1cc(-c2cn3nc(-c4cccnc4C(F)(F)F)ccc3n2)ccc1Cl [Example 699, N-tert-butyl-2-chloro-5-(6-(2-(trifluoromethyl)pyridin-3-yl)imidazo[1,2-b]pyridazin-2-yl)benzenesulfonamide] | > 10000 nM | 2300 nM | – | – | –
CC(C)(C)C(=O)Nc1cc(-c2cn3nc(-c4cc(F)ccc4C(F)(F)F)ccc3n2)ccc1C(F)(F)F [Example 291, N-(5-(6-(5-fluoro-2-(trifluoromethyl)phenyl)imidazo[1,2-b]pyridazin-2-yl)-2-(trifluoromethyl)phenyl)pivalamide] | 325 nM | 289 nM | – | – | –
CC(O)COc1ccc2nc(-c3ccc(C(F)(F)F)c(NC(=O)C(C)(C)C)c3)cn2n1 (centres unmarked) [Example 376, N-(5-(6-(2-hydroxypropoxy)imidazo[1,2-b]pyridazin-2-yl)-2-(trifluoromethyl)phenyl)pivalamide] | 874 nM | 616 nM | – | – | –
COC(=O)C=Cc1ccc(Cl)c(-c2ccc3nc(-c4ccc(C)c(NC(=O)C(C)(C)C)c4)cn3n2)c1 [compound 573] | 1040 nM | 70 nM | – | – | –
Cc1ccc(-c2cn3nc(-c4cccnc4C(F)(F)F)ccc3n2)cc1NC(=O)c1cccc(C=CC(=O)Nc2ccccc2N)c1 [compound 623, 3-(3-((2-aminophenyl)amino)-3-oxoprop-1-en-1-yl)-N-(2-methyl-5-(6-(2-(trifluoromethyl)pyridin-3-yl)imidazo[1,2-b]pyridazin-2-yl)phenyl)benzamide] | 145 nM | 198 nM | < 300 nM | 300 to 3000 nM | < 300 nM
Cc1ccc(-c2nc3ccc(-c4cccnc4C(F)(F)F)nn3c2Cl)cc1NC(=O)C(C)(C)C [Example 641, N-(5-(3-chloro-6-(2-(trifluoromethyl)pyridin-3-yl)imidazo[1,2-b]pyridazin-2-yl)-2-methylphenyl)pivalamide] | 34 nM | 76 nM | – | – | –
Cc1ccc(-c2cn3nc(-c4ccc(OCCCCCCC(=O)NO)cc4C(F)(F)F)ccc3n2)cc1NC(=O)C(C)(C)C [Example 417, N-hydroxy-7-(4-(2-(4-methyl-3-pivalamidophenyl)imidazo[1,2-b]pyridazin-6-yl)-3-(trifluoromethyl)phenoxy)heptanamide] | – | 380 nM | 3000 to 30000 nM | 300 to 3000 nM | 300 to 3000 nM
CCN1CCCC1C(=O)Nc1cc(-c2cn3nc(-c4cccnc4C(F)(F)F)ccc3n2)ccc1C (centres unmarked) [Example 648, 1-ethyl-N-(2-methyl-5-(6-(2-(trifluoromethyl)pyridin-3-yl)imidazo[1,2-b]pyridazin-2-yl)phenyl)pyrrolidine-2-carboxamide] | 373 nM | 400 nM | – | – | –
Cc1ccc(-c2cn3nc(C4=CCC(C)(C)CC4)ccc3n2)cc1NC(=O)C(C)(C)C [Example 444, N-(5-(6-(4,4-dimethylcyclohex-1-enyl)imidazo[1,2-b]pyridazin-2-yl)-2-methylphenyl)pivalamide] | 604 nM | 1240 nM | – | – | –
CC(C)(C)C(=O)Nc1cc(-c2cn3nc(-c4cccnc4C(F)(F)F)ccc3n2)ccc1C1CC1 [Example 644, N-(2-cyclopropyl-5-(6-(2-(trifluoromethyl)pyridin-3-yl)imidazo[1,2-b]pyridazin-2-yl)phenyl)pivalamide] | 15 nM | 72 nM | – | – | –
CC(C)(C)C(=O)Nc1cc(-c2cn3nc(-c4ccccc4F)ccc3n2)ccc1OC(F)(F)F [Example 248, N-(5-(6-(2-fluorophenyl)imidazo[1,2-b]pyridazin-2-yl)-2-(trifluoromethoxy)phenyl)pivalamide] | 231 nM | – | < 300 nM | 300 to 3000 nM | 300 to 3000 nM
CCOC(=O)CCCCCCOc1ccc(C(F)(F)F)c(-c2ccc3nc(-c4ccc(C)c(NC(=O)C(C)(C)C)c4)cn3n2)c1 [Example 425, ethyl 7-(3-(2-(4-methyl-3-pivalamidophenyl)imidazo[1,2-b]pyridazin-6-yl)-4-(trifluoromethyl)phenoxy)heptanoate] | 239 nM | 86 nM | – | – | –
Cc1ccc(-c2cn3nc(N4CCC(C(N)=O)CC4)ccc3n2)cc1NC(=O)C(C)(C)C [compound 542] | 88 nM | 94 nM | < 300 nM | 300 to 3000 nM | < 300 nM
Cc1ccc(-c2cn3nc(-c4cnccc4C(F)(F)F)ccc3n2)cc1NC(=O)C(C)(C)C [Example 364, N-(2-methyl-5-(6-(4-(trifluoromethyl)pyridin-3-yl)imidazo[1,2-b]pyridazin-2-yl)phenyl)pivalamide] | 1 nM | 3 nM | – | – | –
CC(C)(C)C(=O)Nc1cc(-c2cn3nc(N4CCC(N5CCOCC5)CC4)ccc3n2)ccc1C(F)(F)F [Example 369, N-(5-(6-(4-morpholinopiperidin-1-yl)imidazo[1,2-b]pyridazin-2-yl)-2-(trifluoromethyl)phenyl)pivalamide] | 363 nM | 713 nM | 300 to 3000 nM | 300 to 3000 nM | 300 to 3000 nM
CC(C)(C)C(=O)Nc1cc(-c2cn3nc(-c4ccc(O)cc4)ccc3n2)ccc1C(F)(F)F [Example 243, N-(5-(6-(4-hydroxyphenyl)imidazo[1,2-b]pyridazin-2-yl)-2-(trifluoromethyl)phenyl)pivalamide] | 295 nM | 306 nM | – | – | –
Cc1c(-c2ccccc2)nc2ccc(N3CCN(Cc4ccc(F)cc4)CC3)nn12 [Example 134, 6-(4-(4-fluorobenzyl)piperazin-1-yl)-3-methyl-2-phenylimidazo[1,2-b]pyridazine] | 232 nM | 926 nM | < 300 nM | 300 to 3000 nM | 300 to 3000 nM
CC(C)(C)C(=O)Nc1cc(-c2cn3nc(NCCO)ccc3n2)ccc1C(F)(F)F [Example 304, N-(5-(6-(2-hydroxyethylamino)imidazo[1,2-b]pyridazin-2-yl)-2-(trifluoromethyl)phenyl)pivalamide] | 393 nM | 559 nM | – | – | –
CC(C)(C)C(=O)Nc1cc(-c2cn3nc(-c4ccc(Cl)cc4)ccc3n2)ccc1C(F)(F)F [Example 238, N-(5-(6-(4-chlorophenyl)imidazo[1,2-b]pyridazin-2-yl)-2-(trifluoromethyl)phenyl)pivalamide] | 230 nM | 625 nM | – | – | –
COc1ccc2nc(-c3ccc(C)c(NC(=O)c4ccc(F)cc4Cl)c3)cn2n1 [Example 98, 2-chloro-4-fluoro-N-(5-(6-methoxyimidazo[1,2-b]pyridazin-2-yl)-2-methylphenyl)benzamide] | 2040 nM | 1340 nM | – | – | –
Cc1c(-c2ccccc2)nc2ccc(N3CCN(Cc4cccnc4)CC3)nn12 [Example 161, 3-methyl-2-phenyl-6-(4-(pyridin-3-ylmethyl)piperazin-1-yl)imidazo[1,2-b]pyridazine] | 404 nM | 911 nM | 300 to 3000 nM | 300 to 3000 nM | 300 to 3000 nM
COc1ccccc1Oc1ccc2nc(-c3ccc(C(F)(F)F)c(NC(=O)C(C)(C)C)c3)cn2n1 [Example 197, N-(5-(6-(2-methoxyphenoxy)imidazo[1,2-b]pyridazin-2-yl)-2-(trifluoromethyl)phenyl)pivalamide] | 875 nM | 357 nM | – | – | –
